One test has as its system long chain DNA (pUC-I′). The test is described as follows: Long chain DNA (pUC-I′) alkylation, 24 hours, sequence gel electrophoresis. The following applies: for sequence-specific alkylation of long chain DNA: 100 nM to 12.5 nM, 23° C. Type of test: biochemical. Here is the method: The reaction of the hairpin polyamides 1 and 12 to 14 with a DNA was investigated using a long chain DNA (pUC-I′). The alkylation reaction was continued for 24 hours and a sequence gel electrophoresis was conducted for the analysis.
On the other hand, the alkylation of ImPyPy-γ-ImPyPyDu86 (12) was not observed at 100 nM to 12.5 nM (lanes 5 to 8). […] In the description made above or below, a -γ- means a γ-aminobutyric acid residue.
A DNA fragment (pUC-I′) was synthesized by a PCR method using pUC 18 as a template together with a 5′-texas red-labeled 20 base pair primer: 5′-[…]-3′ (pUC 18 forward, 780-799) and 20 base pair primer: 5′-[…]-3′ (pUC18 reverse, 1459-1478). The resultant DNA fragments were purified by filtration through a Suprec-02, and then examined for the UV absorption to determine the respective concentrations.
To 10 μl in total of 5 mM sodium phosphate buffer (pH7.0), a standard reaction solution containing 10 nM of the DNA fragment (pUC-I′) whose 5′-terminal had been labeled with the texas red, 10% (v/v) DMF and an agent at the concentration indicated in FIG. 1 was added in a microcentrifugation tube (Eppendorf) and allowed to stand for 24 hours at 23° C.
A bovine thymus DNA (1 mM, 1 μL) was added for quenching, and the mixture was shaken for 5 minutes at 90° C. The DNA obtained by centrifugation under reduced pressure was combined with 8 μl of a loading color (solution of *FUGENE* Red in DMF) and dissolved, and then shaken for 20 minutes at 94° C. Immediately after this, the mixture was cooled rapidly to 0° C., and a 2 μl aliquot was subjected to an electrophoresis on a 6% denature polyacrylamide gel using a HITACHI 5500-S DNA sequencer system.

In the next test the test system is DNA fragment (pUC-I′). As to the kind of experiment: Alkylation of pUC-I′ DNA within a short period (5 minutes, 1 hour, 2 hours), gel electrophoresis. The class given is biochemical. How it is done: In order to investigate the difference in the reactivity between Compounds 1 and 13 in more detail, the alkylation within a short period was analyzed.
To 10 μl in total of 5 mM sodium phosphate buffer (pH7.0), a standard reaction solution containing 10 nM of the DNA fragment (pUC-I′) whose 5′-terminal had been labeled with the texas red, 10% (v/v) DMF and an agent at the concentration indicated in FIG. 2 was added in a microcentrifugation tube (Eppendorf) and allowed to stand for 5 minutes, 1 hour and 2 hours, respectively at 23° C.
After each reaction time, a bovine thymus DNA (1 mM, 1 μL) was added for quenching, and the mixture was shaken for 5 minutes at 90° C. The DNA obtained by centrifugation under reduced pressure was combined with 8 μl of a loading color (solution of *FUGENE* Red in DMF) and dissolved, and then shaken for 20 minutes at 94° C. Immediately after this, the mixture was cooled rapidly to 0° C., and a 2 μl aliquot was subjected to an electrophoresis on a 6% denature polyacrylamide gel using a HITACHI 5500-S DNA sequencer system.

Test [1] concerns DNA oligomers 5′-CAAGTCAGAG/5′-CTCTGACTTG
The test is described as follows: Short chain DNA (10 bp) alkylation followed by HPLC. The following applies: for alkylation of DNA oligomer: 150 μM agent and DNA, 23° C. Type of test: biochemical. From the text: In order to clarify the reactive base site in an alkylation site, the alkylation with Polyamides 12, 13 and 14 was investigated by an HPLC using DNA oligomers 5′-CAAGTCAGAG/5′-CTCTGACTTG as substrates. […] Also by decomposing the oligomers by heating and investigating the degradation products of the oligomers by the method which the inventors reported previously (Tetrahedron Lett. 1990, 31, 7197; Tetrahedron Lett. 1993, 34, 2179 and the like), it was proven that the alkylation reaction occurred at the site indicated by an arrow. […] These findings may be attributable to the difference in the reactivity between the Du and the Du86 similarly to the reactivity on the long chain DNA.
A DNA oligomer synthesized by a DNA synthesizer was employed. To 50 μl in total of 50 mM sodium cacodylate buffer (pH7.0), a standard reaction solution containing 150 μM of the double-stranded DNA fragment, 10% (v/v) DMF and each agent of Compounds 1, 12, 13 and 14 (150 μM) was added in a microcentrifugation tube (Eppendorf) and allowed to stand at 23° C.
The advancement of the reaction was ensured by an HPLC using a *CHEMCOBOND* 5-ODS-H column (4.6×150 mm). The HPLC conditions are shown below.
[Linear gradient of 50 mM ammonium formate: 0-50% acetonitrile (0 to 40 min), flow rate: 1.0 mL/min, 254 nm].

Test [2] relates to GFP protein expression coding region. As to the kind of experiment: Inhibition of mRNA transcription in GFP coding region with T7 promoter and T7 polymerase. Type of test: biochemical. The following applies: early stage experiment. From the text:
The condition of the experiment has not been established yet, and a further detailed analysis of the transcription inhibition mechanism is required. […] It leads to a breakthrough toward the development of a novel knockout gene method.

A further test deals with long chain DNA (pUC-II). As to the kind of experiment: Long chain DNA (pUC-II) alkylation, 24 hours, sequence gel electrophoresis. Type of test: biochemical. The following applies: nM concentrations, 23° C. Here is the method:
For the purpose of comparing the hairpin polyamides 14, 15 and 16, the DNA alkylation reaction employing a long chain DNA (pUC-II) was conducted.
With this regard, the inventors considered that this problem can be solved by replacing the Du86 with CBI: 1,2,9,9a-tetrahydrocyclopropa[c]benz[e]indole-4-one (22), the method for synthesizing which had already been reported by Boger et al. (J. Org. Chem. 1992, 57, 2873; J. Org. Chem. 1995, 60, 1271 and the like). The benefit of using CBI includes the ability of using commercially available 1,3-dihydroxynaphthalene as a starting material and the ability of providing both enantiomers by an optical resolution. Accordingly, the inventors newly synthesized Compound 23 by replacing the Du86 part of Compound 16 with CBI. Then the inventors evaluated the DNA-alkylating ability using a long chain DNA (pUC-II).
A DNA fragment (pUC-II) was synthesized by a PCR method using pUC 18 as a template together with a 5′-texas red-labeled 21 base pair primer: 5′-[…]-3′ (pUC 18 reverse, 1861-1881) and 18 base pair primer: 5′-TGTAAAACGACGGCCAGT-3′ (pUC18 forward, 378-395). The resultant DNA fragments were purified by filtration through a Suprec-02, and then examined for the UV absorption to determine the respective concentrations.
To 10 μl in total of 5 mM sodium phosphate buffer (pH7.0), a standard reaction solution containing 10 nM of the DNA fragment (pUC-II) whose 5′-terminal had been labeled with the texas red, 10% (v/v) DMF and an agent at the concentration indicated in FIG. 4 was added in a microcentrifugation tube (Eppendorf) and allowed to stand for 24 hours at 23° C.
A bovine thymus DNA (1 mM, 1 μL) was added for quenching, and the mixture was shaken for 5 minutes at 90° C. The DNA obtained by centrifugation under reduced pressure was combined with 8 μl of a loading color (solution of *FUGENE* Red in DMF) and dissolved, and then shaken for 20 minutes at 94° C. […]

The test system of test [3] is 39 human cultured cancer cell lines. The test is described as follows: Cytostatic activity on 39 human cultured cancer cell lines. Type of test: cell-based. Details: mean IC50 values: scale not given here. The following applies: for mean IC50 values: mean over 39 human cancer cell lines. From the text:
The first is the proportional relationship between the DNA-alkylating ability and the cytostatic activity (FIG. 8). For example, the mean IC50 values of ImPyDu (−4.59), ImPyDu86 (−5.95) and ImPyLDu86 (−8.25) were reduced gradually as the DNA-alkylating ability was increased.
A further interesting result was obtained when comparing the fingerprint patterns indicating the cytostatic activity of the hairpin sequence-specific alkylating agents ImPyPy-γ-ImPyLDu 36 (13) and ImPyPy-γ-ImPyPyLDu 36 (14) (FIG. 9). In general, a high correlation coefficient (r=0.75 to 1.0) is known to be obtained when comparing the fingerprint patterns between the drugs whose action mechanisms are analogous to each other, and in fact an extremely high analogy was observed among a DNA intercalator, doxorubicin, daunorubicin and epirubicin. […] The influence on the cytostatic activity attributable only to the difference in the base sequence-recognizing ability in spite of the analogy in the structure as observed with these Compound 13 and 14 has never been reported, and thus is one of the most important findings.

In test [4] the test system is DNA sequence PyG(A/T) CPu. The following applies: cited from earlier work.
Test [5] relates to DNA fragment of 450 base pairs. The following applies: 450 base pair DNA fragment; cited from earlier work.

Entries after “also recorded” stand apart in the source; their conditions may differ.

In the case of `COC(=O)C1=C(C)CC2=C1[C@@]13C[C@@H]1CN(C(=O)/C=C/c1cc(NC(=O)c4nc(NC(=O)CCCNC(=O)c5cc(NC(=O)c6cc(NC(=O)c7nc(NC(C)=O)cn7C)cn6C)cn5C)cn4C)cn1C)C3=CC2=O` [Compound 13, AcImPyPy-γ-ImPyLCPI], the “consumption of starting DNA” value with long chain DNA (pUC-I′) (100 nM (lane 9), 24 hours) was “disappearance of almost all starting DNA”. Also, the “sequence-specific alkylation of long chain DNA” value in the test with long chain DNA (pUC-I′) (24 hours) is “reacted at A in the GTCAG sequence of the site 3”. Also, in the test on DNA fragment (pUC-I′) (5 minutes), the “alkylation after short reaction time” value is “caused the alkylation”. Further, in test [1], the “reactivity on the DNA oligomers compared with other compounds” value (“reactivity … compared with other compounds” for short) was “dramatically increased reactivity”. Also, in test [1] (after 5 minutes), the “alkylation of DNA oligomer” value was 75%. The “mRNA produced by transcription inhibition due to alkylation of the adenine in the 387 nt position” value in test [2] was “observed successfully”.
For the compound AcImImPyPy-γ-ImPyPyLDu86 [Compound 15], the “sequence-specific alkylation of pUC-II DNA” value with long chain DNA (pUC-II) was “sequence-specific alkylation was observed at 5′-TGACCA-3′”.
The same measure, in the same setting: the same measure for `COC(=O)c1c(C)[nH]c2c1[C@@]13C[C@@H]1CN(C(=O)/C=C/c1cc(NC(=O)c4cc(NC(=O)c5nc(NC(=O)CCNC(=O)c6cc(NC(=O)c7cc(NC(=O)c8nc(NC(=O)c9nccn9C)cn8C)cn7C)cn6C)cn5C)cn4C)cn1C)C3=CC2=O` [Compound 16, H-ImImPyPy-γ-ImPyPyLCPI]: “sequence-specific alkylation was observed at 5′-TGACCA-3′”.
Regarding AcImPyPy-γ-ImPyPyCPI [Compound 12], the “sequence-specific alkylation of long chain DNA” value in the test with long chain DNA (pUC-I′) (24 hours) is reported as “not observed”. Further, the “alkylation of long chain DNA at elevated concentration” value with long chain DNA (pUC-I′) (10 μM) is reported as “no occurrence of the alkylation”. In test [1], the “reactivity … compared with other compounds” value is on record as “extremely poorer when compared with Compound 1”. The “alkylation of DNA oligomer” value in test [1] (after 17 hours) was determined as 13%.
Regarding `COC(=O)c1c(C)[nH]c2c1[C@@]13C[C@@H]1CN(C(=O)/C=C/c1cc(NC(=O)c4cc(NC(=O)c5nc(NC(=O)CCCNC(=O)c6cc(NC(=O)c7cc(NC(=O)c8nc(NC(C)=O)cn8C)cn7C)cn6C)cn5C)cn4C)cn1C)C3=CC2=O` [Compound 14, AcImPyPy-γ-ImPyPyLCPI], the “sequence-specific alkylation of long chain DNA” value with long chain DNA (pUC-I′) (24 hours) is listed as “slightly reduced reactivity when compared with Compound 13”. In addition, the “reactivity … compared with other compounds” value in test [1] was “almost equivalent to Compound 1 and poorer than Compound 13”. In addition, the “alkylation of DNA oligomer” value in test [1] (after 2 hours) is on record as 46%. Besides, in the test on long chain DNA (pUC-II), the “sequence-specific alkylation of pUC-II DNA” value is “sequence-specific alkylation was observed at 5′-TGACCA-3′; also recorded: reactivity is far lower than those of Compounds 15 and 16”.
Regarding ImPyPyLDu86, the “change of cytostatic activity due to the vinyl linker between polyamide and Du86” value (“change of cytostatic activity due” for short) in test [3] is “dramatic increase in the cytostatic activity”.
In the case of ImPyDu86, in test [3], the “mean IC50 values” is −5.95.
On to PyPyLDu86, for which, in test [3], the “change of cytostatic activity due” value is reported as “dramatic increase in the cytostatic activity”.
Turning to ImPyLDu86, in test [3], the “mean IC50 values” is −8.25. Moreover, the “alkylation induced, share of the compound employed” value in test [4] was 70%.
For `COC(=O)[C@]1(C)NC2=C(C1=O)[C@@]13C[C@@H]1CN(C(=O)c1cc(NC(=O)c4cc(NC(=O)c5nc(NC(=O)CCCNC(=O)c6cc(NC(=O)c7cc(NC(=O)c8nc(NC(C)=O)cn8C)cn7C)cn6C)cn5C)cn4C)cn1C)C3=CC2=O` [Compound 1, ImPyPy-γ-ImPyPyDu], the “sequence-specific alkylation of long chain DNA” value with long chain DNA (pUC-I′) (24 hours) was “reacted selectively at G in the 5′-GTCAG-3′ sequence in Site 3”. For the same compound, the “alkylation after short reaction time” value in the test on DNA fragment (pUC-I′) (one hour) is on record as “no reaction”. In test [5], the “reaction efficiency of sequence-specific DNA alkylation” value is 7% and the “time for sequence-specific alkylation of DNA to complete” value is no less than 1 week.
With PyPyPyLDu86, the “change of cytostatic activity due” value in test [3] was “dramatic increase in the cytostatic activity”.
As to ImPyDu, the “mean IC50 values” in test [3] was −4.59.

Source of the values: patent publication US7456294B2, “Hairpin polyamide” (Japan Science and Technology Agency, priority 2002, dated 2008).
